Results from ChEMBL document CHEMBL1201862, “PubChem BioAssay data set” (2004).
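Test compounds were applied to cells in 96-well plates for 48 hours at 5 doses. The concentration for 50% growth inhibition is given as GI50.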 Calls of active or inactive are those of the source. No stated cut-off is given here; in the data, active = GI50 up to about 1.1 µM and inactive = higher.

Key:
Assay in all cases: NCI anticancer screen, dose series, 48 h
DLD-1 = tested on: DLD-1
HOP-18 = tested on: HOP-18
LXFL 529 = tested on: LXFL 529
M19-MEL = tested on: M19-MEL
RXF 631 = tested on: RXF 631
SNB-78 = tested on: SNB-78
XF498 = tested on: XF498
DMS-114 = tested on: DMS-114
KM-20L2 = tested on: KM-20L2

Measured: GI50

S=c1[nH]nc(Cc2ccccc2)c(=S)[nH]1
inactive: DLD-1 94.8 µM | HOP-18 25.4 µM | LXFL 529 > 100 µM | M19-MEL > 100 µM | RXF 631 > 100 µM | SNB-78 > 100 µM | XF498 > 100 µM

CC(C)(C)C1CCC(O)(c2ccccc2)CC1 (configuration not stated)
inactive: DLD-1 > 100 µM | DMS-114 45.6 µM | HOP-18 > 100 µM | KM-20L2 > 100 µM | LXFL 529 78.2 µM | M19-MEL > 100 µM | SNB-78 > 100 µM | XF498 1.97 µM

Cc1ccc2c(c1)-c1c3c(nn1-c1ccccc1)-c1ccccc1SC3O2 (configuration not stated)
inactive: DLD-1 > 100 µM | DMS-114 > 100 µM | HOP-18 > 100 µM | KM-20L2 > 100 µM | LXFL 529 > 100 µM | RXF 631 2.65 µM | SNB-78 > 100 µM | XF498 > 100 µM

N=S(c1ccccc1)c1ccccc1[N+](=O)[O-] (configuration not stated)
inactive: DLD-1 18.6 µM | DMS-114 18.2 µM | HOP-18 32.6 µM | KM-20L2 21 µM | LXFL 529 16.6 µM | M19-MEL 12.3 µM | SNB-78 36.1 µM | XF498 3.16 µM

Cc1ccc(S(=O)(=O)NCCCN(CCCNS(=O)(=O)c2ccc(C)cc2)S(=O)(=O)c2ccc(C)cc2)cc1
inactive: DLD-1 > 100 µM | DMS-114 > 100 µM | KM-20L2 > 100 µM | LXFL 529 > 100 µM | M19-MEL > 100 µM | SNB-78 > 100 µM

CN/N=C(/c1nc2ccc([N+](=O)[O-])cc2nc1O)C(O)c1ccc(C(O)/C(=N\NC)c2nc3ccc([N+](=O)[O-])cc3nc2O)cc1 (configuration not stated)
inactive: DLD-1 35.6 µM | DMS-114 7.16 µM | KM-20L2 63 µM | LXFL 529 20.7 µM | M19-MEL > 100 µM | RXF 631 21.3 µM | SNB-78 > 100 µM

C/C(=N\NS(=O)(=O)c1ccc(C)cc1)c1c(O)cc(C)oc1=O
inactive: DLD-1 > 100 µM | HOP-18 > 100 µM | KM-20L2 > 100 µM | LXFL 529 > 100 µM | M19-MEL > 100 µM | SNB-78 > 100 µM

COc1ccc(S(=O)(=O)N[C@H](C(=O)O)c2ccccc2)cc1
inactive: DLD-1 > 100 µM | DMS-114 > 100 µM | HOP-18 > 100 µM | KM-20L2 > 100 µM | LXFL 529 > 100 µM | M19-MEL > 100 µM | SNB-78 > 100 µM | XF498 > 100 µM

COC1(OC)C2(Cl)C(Cl)=C(Cl)C1(Cl)C1c3ccc(C(C)=O)c4cccc(c34)C12 (configuration not stated)
inactive: DMS-114 15.9 µM | HOP-18 > 100 µM | KM-20L2 4.53 µM | LXFL 529 25.6 µM | M19-MEL 25.6 µM | SNB-78 28.3 µM

N#CC1(Cc2ccc(N)cc2)c2ccccc2C=CN1C(=O)c1ccccc1 (configuration not stated)
inactive: DLD-1 40 µM | DMS-114 38.8 µM | HOP-18 25.2 µM | KM-20L2 34.1 µM | LXFL 529 35.8 µM | M19-MEL 40.1 µM | SNB-78 47.9 µM | XF498 28.9 µM

CCNCCCCNCCCCNCCCCNCCCCNCC
inactive: DLD-1 > 100 µM | DMS-114 > 100 µM | HOP-18 > 100 µM | KM-20L2 > 100 µM | LXFL 529 > 94.8 µM | M19-MEL > 100 µM | SNB-78 > 100 µM | XF498 > 32.8 µM

ClCCN(CC#CCCCC#CCN(CCCl)CCCl)CCCl
inactive: DLD-1 15.6 µM | DMS-114 3.01 µM | HOP-18 17.8 µM | KM-20L2 13.8 µM | LXFL 529 12.4 µM | M19-MEL 12.1 µM | RXF 631 10.8 µM | SNB-78 17.2 µM

COC(=O)C(=O)CC(=O)CCn1[nH]c(=O)c(Cl)c(Cl)c1=O
inactive: DLD-1 > 100 µM | DMS-114 > 100 µM | KM-20L2 > 100 µM | LXFL 529 > 100 µM | M19-MEL > 100 µM | SNB-78 > 100 µM | XF498 > 100 µM

N#Cc1cc([N+](=O)[O-])ccc1NC(=O)C(=O)C(C(=O)c1ccc2ccccc2c1)C1OCc2ccccc21 (configuration not stated)
inactive: DLD-1 11.1 µM | DMS-114 8.07 µM | KM-20L2 20.7 µM | LXFL 529 4.41 µM | M19-MEL 11.8 µM | RXF 631 11.3 µM | SNB-78 3.93 µM
